Measurements published in ChEMBL document CHEMBL1201862, “PubChem BioAssay data set” (2004).
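Step 1: Grow cells in 96-well plates. Step 2: Expose to compound for 48 hours at 5 concentrations. Step 3: Interpolate endpoints linearly; if unreached, use highest concentration. The concentration for 50% growth inhibition is given as GI50.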 Activity calls are given as the source filed them. Rule as the data show it: active = GI50 up to about 1.1 µM and inactive = higher.

Key:
Experiment in all cases: DTP human tumour cell line panel, 48 h
[1] = tested on: 786-0
[2] = tested on: HL-60
[3] = tested on: HOP-62
[4] = tested on: HOP-92
[5] = tested on: IGROV-1
[6] = tested on: MDA-MB-435
[7] = tested on: NCI-H522
[8] = tested on: NCI/ADR-RES
[9] = tested on: OVCAR-4
[10] = tested on: RPMI-8226
[11] = tested on: RXF 393
[12] = tested on: SF-295
[13] = tested on: SK-MEL-28
[14] = tested on: SR
[15] = tested on: T47D
[16] = tested on: TK-10
[17] = tested on: U-251
[18] = tested on: UO-31
[19] = tested on: COLO 205
[20] = tested on: Malme-3M

Structure (SMILES) | GI50 [1] | GI50 [2] | GI50 [3] | GI50 [4] | GI50 [5] | GI50 [6] | GI50 [7] | GI50 [8] | GI50 [9] | GI50 [10] | GI50 [11] | GI50 [12] | GI50 [13] | GI50 [14] | GI50 [15] | GI50 [16] | GI50 [17] | GI50 [18] | GI50 [19] | GI50 [20]
CN1CCN(Cn2nc(-c3ccccc3)n(/N=C/c3ccc(-c4ccc(Cl)cc4Cl)o3)c2=S)CC1 | 13.1 µM (inactive) | 4.58 µM (inactive) | 11.4 µM (inactive) | 8.95 µM (inactive) | 8.97 µM (inactive) | 11.4 µM (inactive) | 28.2 µM (inactive) | 16 µM (inactive) | 16.3 µM (inactive) | 8.61 µM (inactive) | 4.22 µM (inactive) | 11.4 µM (inactive) | 12.1 µM (inactive) | 1.51 µM (inactive) | 15.5 µM (inactive) | 15.1 µM (inactive) | 5.25 µM (inactive) | 14.8 µM (inactive) |  | 
CC1=Nc2ccccc2/C1=C\c1c(C)[nH]c2ccccc12 | 12 µM (inactive) | 5.85 µM (inactive) | 23.2 µM (inactive) | 3.73 µM (inactive) | 12.5 µM (inactive) | 6.59 µM (inactive) | 10 µM (inactive) | 16.2 µM (inactive) | 12.4 µM (inactive) | 16.3 µM (inactive) | 10.6 µM (inactive) | 18.6 µM (inactive) | 16.6 µM (inactive) | 5.9 µM (inactive) | 9.53 µM (inactive) | 16.3 µM (inactive) | 15.9 µM (inactive) | 13.6 µM (inactive) | 19.1 µM (inactive) | 14.1 µM (inactive)
C/C(=N\C1CCCCC1)c1ccccc1O | > 100 µM (inactive) | 56.1 µM (inactive) | > 100 µM (inactive) | > 100 µM (inactive) | > 100 µM (inactive) | > 100 µM (inactive) | 34.2 µM (inactive) | > 100 µM (inactive) | > 100 µM (inactive) | 87.5 µM (inactive) | > 100 µM (inactive) | > 100 µM (inactive) | > 100 µM (inactive) | > 100 µM (inactive) | > 100 µM (inactive) | > 100 µM (inactive) | > 100 µM (inactive) | > 100 µM (inactive) | > 100 µM (inactive) | > 100 µM (inactive)
CCCCCCCCCCCCCCCCNc1nc(=O)n(C2OC(C)C(O)C2O)cc1F (configuration not stated) | 19.9 µM (inactive) | 14.5 µM (inactive) | 16.4 µM (inactive) | 22.9 µM (inactive) | 17.6 µM (inactive) | 15.5 µM (inactive) | 18.7 µM (inactive) | 18.9 µM (inactive) | 22.1 µM (inactive) | 10.6 µM (inactive) | 20.7 µM (inactive) | 20.8 µM (inactive) | 19.2 µM (inactive) | 23.9 µM (inactive) | 21.1 µM (inactive) | 16.8 µM (inactive) | 23.7 µM (inactive) | 14 µM (inactive) | 24.4 µM (inactive) | 23.1 µM (inactive)
O/N=C(/CC(O)(C(F)(F)F)C(F)(F)F)c1ccccc1 | > 10 µM (inactive) | > 10 µM (inactive) | > 10 µM (inactive) | > 10 µM (inactive) | > 10 µM (inactive) | > 10 µM (inactive) | > 10 µM (inactive) | > 10 µM (inactive) | > 10 µM (inactive) | > 10 µM (inactive) | > 10 µM (inactive) | > 10 µM (inactive) | > 10 µM (inactive) | > 10 µM (inactive) | > 10 µM (inactive) | > 10 µM (inactive) | > 10 µM (inactive) |  | > 10 µM (inactive) | > 10 µM (inactive)
C/C(Nc1ccc(Cl)cc1Cl)=C1/CCOC1=O | 40.4 µM (inactive) | 56.5 µM (inactive) | 27 µM (inactive) | 22.8 µM (inactive) | > 100 µM (inactive) | > 100 µM (inactive) | 86.5 µM (inactive) | 77.6 µM (inactive) | > 100 µM (inactive) | > 100 µM (inactive) | 13.5 µM (inactive) | 26.6 µM (inactive) | > 100 µM (inactive) | > 100 µM (inactive) | 46.5 µM (inactive) | 56.4 µM (inactive) | 27.2 µM (inactive) | 40.8 µM (inactive) | > 100 µM (inactive) | > 100 µM (inactive)
CCOC(=O)c1[nH]c(Br)c(-c2ccc(OC)c(OC)c2)c1Br | 0.0334 µM (active) | 0.0679 µM (active) | 0.0608 µM (active) | 7.46 µM (inactive) | 0.0552 µM (active) | 0.0091 µM (active) | 0.00991 µM (active) | 0.00434 µM (active) | 4.82 µM (inactive) | 0.01 µM (active) | 0.00906 µM (active) | 0.00975 µM (active) | 0.0562 µM (active) | 0.0214 µM (active) | 21 µM (inactive) | 14 µM (inactive) | 0.0311 µM (active) | 0.0676 µM (active) | 0.175 µM (active) | 1.71 µM (inactive)
